Reference: ChEMBL document CHEMBL5661943, “ASAP - In vitro antiviral effect” (2024)

Columns and labels:
Zika virus = experiment: EC50 is reported via analysis of immunofluorescence staining. The assay has been performed by Icahn School of Medicine at Mount Sinai.; format: functional, organism-based, Chlorocebus sabaeus, VeroE6/TMPRSS2
dengue virus type 2 = experiment: Functional immunofluorescence assay to measure dose dependent changes in antiviral-drug inhibitory efficacy against Dengue virus type 2 Thailand/16681/84 in Vero E6/TMPRSS2 cells (cotreated with P-gp inhibitor, Elacridar). Cells are treated with antiviral candidates that are serially diluted, following infection, cells are fixed. EC50 is reported via analysis of immunofluorescence staining. The assay has been performed by Icahn School of Medicine at Mount Sinai.; format: organism-based, Chlorocebus sabaeus, VeroE6/TMPRSS2

c1ccc(-c2csc(C3CCN(Cc4c[nH]c5ccccc45)CC3)n2)cc1
EC90 (Zika virus; Baseline response 0 %, Hill slope -0.213, Maximum measured 87.861 %, Maximum response 100 %, Minimum measured 39.067 %, P-gp concentration 2 uM, R squared 0.218, P-gp inhibitor Elacidar): > 1.85 µM | EC50 (Zika virus; Zika virus, VeroE6/TMPRSS2): 0.919 µM | EC90 (Zika virus; Zika virus, VeroE6/TMPRSS2, Baseline response 0 %, Hill slope -0.414, Maximum measured 90.11 %, Maximum response 100 %, Minimum measured 29.783 %, P-gp concentration 2 uM, R squared 0.361, P-gp inhibitor Elacidar): > 3.33 µM | EC50 (Zika virus; veroe6/tmprss2): 1.09 µM | EC50 (dengue virus type 2; Dengue virus, VeroE6/TMPRSS2): > 3.33 µM | EC90 (dengue virus type 2; Dengue virus, VeroE6/TMPRSS2, Maximum measured 77.936 %, Minimum measured 57.835 %, P-gp concentration 2 uM, P-gp inhibitor Elacidar): > 3.33 µM | EC90 (dengue virus type 2; Dengue virus, VeroE6/TMPRSS2, Baseline response 0 %, Hill slope -0.326, Maximum measured 104.724 %, Maximum response 100 %, Minimum measured 54.484 %, P-gp concentration 2 uM, R squared 0.233, P-gp inhibitor Elacidar): > 1.85 µM | EC50 (dengue virus type 2; veroe6/tmprss2): > 1.85 µM

CC[C@H](Cc1nn[nH]n1)c1ccc(N[C@H](C(=O)NC)c2cc(Cl)cc(NC(=O)OCc3ccccc3)c2)cc1
EC50 (Zika virus; Zika virus, VeroE6/TMPRSS2): > 50 µM | EC90 (Zika virus; Zika virus, VeroE6/TMPRSS2, Maximum measured 168.95 %, Minimum measured 107.074 %, P-gp concentration 2 uM, P-gp inhibitor Elacidar): > 50 µM | EC50 (dengue virus type 2; Dengue virus, VeroE6/TMPRSS2): > 50 µM | EC90 (dengue virus type 2; Dengue virus, VeroE6/TMPRSS2, Baseline response 0 %, Hill slope -0.218, Maximum measured 117.472 %, Maximum response 100 %, Minimum measured 37.097 %, P-gp concentration 2 uM, R squared 0.193, P-gp inhibitor Elacidar): > 50 µM

N#Cc1cc(Cl)cc(C(=O)Nc2ccc3c(c2)CNC3)c1
EC50 (Zika virus; Zika virus, VeroE6/TMPRSS2): 47.2 µM | EC90 (Zika virus; Zika virus, VeroE6/TMPRSS2, Baseline response 0 %, Hill slope -12.375, Maximum measured 129.405 %, Maximum response 100 %, Minimum measured 33.162 %, P-gp concentration 2 uM, R squared 0.602, P-gp inhibitor Elacidar): > 50 µM | EC50 (dengue virus type 2; Dengue virus, VeroE6/TMPRSS2): > 50 µM | EC90 (dengue virus type 2; Dengue virus, VeroE6/TMPRSS2, Maximum measured 57.395 %, Minimum measured 32.413 %, P-gp concentration 2 uM, P-gp inhibitor Elacidar): > 50 µM

O=C(Nc1cc(Cl)cc(S(=O)(=O)Nc2cccc(-c3nn[nH]n3)c2)c1)OCc1ccccc1
EC50 (Zika virus; Zika virus, VeroE6/TMPRSS2): > 16.7 µM | EC90 (Zika virus; Zika virus, VeroE6/TMPRSS2, Maximum measured 147.808 %, Minimum measured 131.825 %, P-gp concentration 2 uM, P-gp inhibitor Elacidar): > 16.7 µM | EC50 (dengue virus type 2; Dengue virus, VeroE6/TMPRSS2): > 50 µM | EC90 (dengue virus type 2; Dengue virus, VeroE6/TMPRSS2, Maximum measured 125.288 %, Minimum measured 43.28 %, P-gp concentration 2 uM, P-gp inhibitor Elacidar): > 50 µM

O=C(Nc1cnc2c(c1)CNCC2)c1cc(Cl)cc2[nH]ncc12
EC50 (Zika virus; Zika virus, VeroE6/TMPRSS2): 45.4 µM | EC90 (Zika virus; Zika virus, VeroE6/TMPRSS2, Baseline response 0 %, Hill slope -15.177, Maximum measured 54.077 %, Maximum response 44.083 %, Minimum measured 8.284 %, P-gp concentration 2 uM, R squared 0.548, P-gp inhibitor Elacidar): > 50 µM | EC50 (dengue virus type 2; Dengue virus, VeroE6/TMPRSS2): > 50 µM | EC90 (dengue virus type 2; Dengue virus, VeroE6/TMPRSS2, Maximum measured 104.893 %, Minimum measured 59 %, P-gp concentration 2 uM, P-gp inhibitor Elacidar): > 50 µM

NS(=O)(=O)c1ccc(C2CCN(Cc3c[nH]c4ccccc34)CC2)cc1
EC90 (Zika virus; Zika virus, VeroE6/TMPRSS2, Maximum measured 220.71 %, Minimum measured 69.091 %, P-gp concentration 2 uM, P-gp inhibitor Elacidar): > 10 µM | EC90 (Zika virus; Zika virus, VeroE6/TMPRSS2, Baseline response 0 %, Hill slope -0.394, Maximum measured 150.63 %, Maximum response 100 %, Minimum measured 65.565 %, P-gp concentration 2 uM, R squared 0.026, P-gp inhibitor Elacidar): > 50 µM | EC50 (Zika virus; veroe6/tmprss2): > 50 µM | EC50 (dengue virus type 2; Dengue virus, VeroE6/TMPRSS2): > 50 µM | EC90 (dengue virus type 2; Dengue virus, VeroE6/TMPRSS2, Baseline response 0 %, Hill slope -0.438, Maximum measured 120.121 %, Maximum response 100 %, Minimum measured 70.269 %, P-gp concentration 2 uM, R squared 0.213, P-gp inhibitor Elacidar): > 50 µM

O=C(NCC1CCOCC1)[C@H](Nc1ccc2c(c1)CNC2)c1cc(Cl)cc2[nH]ncc12
EC50 (Zika virus; Zika virus, VeroE6/TMPRSS2): > 16.7 µM | EC90 (Zika virus; Zika virus, VeroE6/TMPRSS2, Maximum measured 73.647 %, Minimum measured 25.821 %, P-gp concentration 2 uM, P-gp inhibitor Elacidar): > 16.7 µM | EC50 (dengue virus type 2; Dengue virus, VeroE6/TMPRSS2): > 16.7 µM | EC90 (dengue virus type 2; Dengue virus, VeroE6/TMPRSS2, Maximum measured 245.258 %, Minimum measured 99.219 %, P-gp concentration 2 uM, P-gp inhibitor Elacidar): > 16.7 µM

CC(=O)Nc1cc(Cl)cc(C(=O)Nc2cccc(CN)c2)c1
EC50 (Zika virus; Zika virus, VeroE6/TMPRSS2): > 50 µM | EC90 (Zika virus; Zika virus, VeroE6/TMPRSS2, Baseline response 0 %, Hill slope 0.296, Maximum measured 131.154 %, Maximum response 100 %, Minimum measured 80.704 %, P-gp concentration 2 uM, R squared 0.041, P-gp inhibitor Elacidar): > 50 µM | EC50 (dengue virus type 2; Dengue virus, VeroE6/TMPRSS2): > 16.7 µM | EC90 (dengue virus type 2; Dengue virus, VeroE6/TMPRSS2, Maximum measured 143.919 %, Minimum measured 91.997 %, P-gp concentration 2 uM, P-gp inhibitor Elacidar): > 16.7 µM

C=CC[C@H](Nc1cc(Cl)cc(NC(=O)OCc2ccccc2)c1)c1cccc(-c2nn[nH]n2)c1
EC50 (Zika virus; Zika virus, VeroE6/TMPRSS2): 14.2 µM | EC90 (Zika virus; Zika virus, VeroE6/TMPRSS2, Baseline response 0 %, Hill slope -24.201, Maximum measured 231.442 %, Maximum response 100 %, Minimum measured 2.044 %, P-gp concentration 2 uM, R squared 0.135, P-gp inhibitor Elacidar): 15.6 µM | EC50 (dengue virus type 2; Dengue virus, VeroE6/TMPRSS2): 0.449 µM | EC90 (dengue virus type 2; Dengue virus, VeroE6/TMPRSS2): 4.92 µM

NCc1cccc([C@@H]2C[C@H]2c2cc(Cl)cc(NC(=O)OCc3ccccc3)c2)c1
EC50 (Zika virus; Zika virus, VeroE6/TMPRSS2): > 5.56 µM | EC90 (Zika virus; Zika virus, VeroE6/TMPRSS2, Maximum measured 125.497 %, Minimum measured 83.326 %, P-gp concentration 2 uM, P-gp inhibitor Elacidar): > 5.56 µM | EC50 (dengue virus type 2; Dengue virus, VeroE6/TMPRSS2): > 5.56 µM | EC90 (dengue virus type 2; Dengue virus, VeroE6/TMPRSS2, Maximum measured 134.824 %, Minimum measured 97.991 %, P-gp concentration 2 uM, P-gp inhibitor Elacidar): > 5.56 µM

O=C(Nc1ccc2c(c1)CNC2)c1cc(Br)cc2[nH]c(C3CCOCC3)nc12
EC50 (Zika virus; Zika virus, VeroE6/TMPRSS2): > 5.56 µM | EC90 (Zika virus; Zika virus, VeroE6/TMPRSS2, Maximum measured 127.67 %, Minimum measured 33.686 %, P-gp concentration 2 uM, P-gp inhibitor Elacidar): > 5.56 µM | EC50 (dengue virus type 2; Dengue virus, VeroE6/TMPRSS2): > 5.56 µM | EC90 (dengue virus type 2; Dengue virus, VeroE6/TMPRSS2, Maximum measured 89.147 %, Minimum measured 35.738 %, P-gp concentration 2 uM, P-gp inhibitor Elacidar): > 5.56 µM

NCCCc1ccnc(NC(=O)c2cc(Cl)cc(NC(=O)OCc3ccccc3)c2)c1
EC50 (Zika virus; Zika virus, VeroE6/TMPRSS2): 0.532 µM | EC90 (Zika virus; Zika virus, VeroE6/TMPRSS2): 3.24 µM | EC50 (dengue virus type 2; Dengue virus, VeroE6/TMPRSS2): > 5.56 µM | EC90 (dengue virus type 2; Dengue virus, VeroE6/TMPRSS2, Baseline response 0 %, Hill slope -1.225, Maximum measured 82.874 %, Maximum response 60 %, Minimum measured 33.609 %, P-gp concentration 2 uM, R squared 0.331, P-gp inhibitor Elacidar): > 5.56 µM

CC[C@H](Cc1nnn[nH]1)c1ccc(NC(=O)c2cc(Cl)cc(C3CC3)c2)cc1
EC50 (Zika virus; Zika virus, VeroE6/TMPRSS2): > 50 µM | EC90 (Zika virus; Zika virus, VeroE6/TMPRSS2, Maximum measured 167.989 %, Minimum measured 95.132 %, P-gp concentration 2 uM, P-gp inhibitor Elacidar): > 50 µM | EC50 (dengue virus type 2; Dengue virus, VeroE6/TMPRSS2): > 16.7 µM | EC90 (dengue virus type 2; Dengue virus, VeroE6/TMPRSS2, Maximum measured 194.23 %, Minimum measured 94.649 %, P-gp concentration 2 uM, P-gp inhibitor Elacidar): > 16.7 µM

O=S(=O)(Nc1cccc(-c2nnn[nH]2)c1)c1cc(Cl)cc(-c2ccccc2)c1
EC50 (Zika virus; Zika virus, VeroE6/TMPRSS2): > 50 µM | EC90 (Zika virus; Zika virus, VeroE6/TMPRSS2, Maximum measured 155.311 %, Minimum measured 93.761 %, P-gp concentration 2 uM, P-gp inhibitor Elacidar): > 50 µM | EC50 (dengue virus type 2; Dengue virus, VeroE6/TMPRSS2): 0.611 µM | EC90 (dengue virus type 2; Dengue virus, VeroE6/TMPRSS2, Baseline response 0 %, Hill slope -0.304, Maximum measured 103.918 %, Maximum response 100 %, Minimum measured 7.141 %, P-gp concentration 2 uM, R squared 0.457, P-gp inhibitor Elacidar): > 50 µM

O=C(Nc1cc(Cl)cc(C(=O)Nc2cc(-c3nnn[nH]3)ccc2F)c1)OCc1ccccc1
EC50 (Zika virus; Zika virus, VeroE6/TMPRSS2): > 16.7 µM | EC90 (Zika virus; Zika virus, VeroE6/TMPRSS2, Maximum measured 136.099 %, Minimum measured 71.047 %, P-gp concentration 2 uM, P-gp inhibitor Elacidar): > 16.7 µM | EC50 (dengue virus type 2; Dengue virus, VeroE6/TMPRSS2): > 50 µM | EC90 (dengue virus type 2; Dengue virus, VeroE6/TMPRSS2, Baseline response 0 %, Hill slope -0.699, Maximum measured 181.18 %, Maximum response 100 %, Minimum measured 75.606 %, P-gp concentration 2 uM, R squared 0.051, P-gp inhibitor Elacidar): > 50 µM

NCc1cccc(NC(=O)c2cc(Cl)cc(N3CCCC3=O)c2)c1
EC90 (Zika virus; Baseline response 0 %, Hill slope 0.118, Maximum measured 129.177 %, Maximum response 100 %, Minimum measured 53.613 %, P-gp concentration 2 uM, R squared 0.041, P-gp inhibitor Elacidar): > 10 µM | EC90 (Zika virus; Baseline response 0 %, Hill slope -0.203, Maximum measured 140.608 %, Maximum response 100 %, Minimum measured 78.837 %, P-gp concentration 2 uM, R squared 0.028, P-gp inhibitor Elacidar): > 50 µM | EC50 (Zika virus; veroe6/tmprss2): > 50 µM | EC90 (dengue virus type 2; Dengue virus, VeroE6/TMPRSS2, Maximum measured 120.219 %, Minimum measured 55.49 %, P-gp concentration 2 uM, P-gp inhibitor Elacidar): > 10 µM | EC90 (dengue virus type 2; Dengue virus, VeroE6/TMPRSS2, Baseline response 0 %, Hill slope 0.068, Maximum measured 98.172 %, Maximum response 100 %, Minimum measured 58.193 %, P-gp concentration 2 uM, R squared 0.052, P-gp inhibitor Elacidar): > 50 µM | EC50 (dengue virus type 2; veroe6/tmprss2): > 50 µM

NCc1ccc(F)c(NC(=O)c2cc(Cl)cc(NC(=O)OCc3ccccc3)c2)c1
EC50 (Zika virus; Zika virus, VeroE6/TMPRSS2): > 5.56 µM | EC90 (Zika virus; Zika virus, VeroE6/TMPRSS2, Maximum measured 191.718 %, Minimum measured 113.213 %, P-gp concentration 2 uM, P-gp inhibitor Elacidar): > 5.56 µM | EC50 (dengue virus type 2; Dengue virus, VeroE6/TMPRSS2): > 5.56 µM | EC90 (dengue virus type 2; Dengue virus, VeroE6/TMPRSS2, Maximum measured 158.385 %, Minimum measured 97.578 %, P-gp concentration 2 uM, P-gp inhibitor Elacidar): > 5.56 µM

O=C(O)CCc1ccc(NC(=O)c2cc(Cl)cc(NC(=O)OCc3ccccc3)c2)cc1
EC50 (Zika virus; Zika virus, VeroE6/TMPRSS2): > 50 µM | EC90 (Zika virus; Zika virus, VeroE6/TMPRSS2, Maximum measured 138.099 %, Minimum measured 61.86 %, P-gp concentration 2 uM, P-gp inhibitor Elacidar): > 50 µM | EC50 (dengue virus type 2; Dengue virus, VeroE6/TMPRSS2): 23.4 µM | EC90 (dengue virus type 2; Dengue virus, VeroE6/TMPRSS2): 44.4 µM
